Experimental data published in publication PMC2376372, “3-Bromophenyl 6-acetoxymethyl-2-oxo-2H-1-benzopyran-3-carboxylate inhibits cancer cell invasion in vitro and tumour growth in vivo” (British Journal of Cancer, 2003).

How the values were obtained:
[1] = tested on: HT1080 fibrosarcoma cells; assay: Chemotaxis assay, uncoated Transwell inserts; type: cell-based, human; details: Homo sapiens, HT-1080, 4 h, uncoated filters
Method: (§1) HT1080 cells exponentially growing in T-75 flasks (Nunc, Costar, Netherlands) were collected by trypsin–ethylenediaminetetraacetic acid treatment, washed with serum-containing medium and allowed to recover from trypsinisation for at least 30 min at 37°C. Cells were then washed twice in serum-free DMEM and diluted in the same medium supplemented with 0.1% bovine serum albumin (BSA, fraction V, Sigma, USA) to a cell density of 6 × 10^5 cells ml^−1.
(§2) The influence of coumarin derivatives (0.1, 1 and 10 μM) on HT1080 cell invasion and migration was assayed using Transwell cell culture inserts (Costar) and compared to the reference compound GI 129471 (1 μM), an MMP inhibitor ([Wheeler et al, 1998]).
(§3) For chemoinvasion assays, type IV collagen-coated membranes (see above) were used, whereas uncoated membranes were employed for chemotaxis assays. Lower wells of chambers were filled with DMEM supplemented with 20% FCS and 1% BSA (fraction V, ICN) as chemoattractant, in the presence or absence of coumarin derivative (final concentration 0.1, 1 and 10 μM) or GI 129471 (final concentration 1 μM). Cells (6 × 10^4) suspended in DMEM supplemented with 0.1% BSA (fraction V, ICN) were seeded in the upper wells. Chambers were subsequently incubated for 48 and 4 h for chemoinvasion and chemotaxis assays, respectively, in a humid atmosphere at 37°C (in order to maintain a chemotactic gradient, media from both lower and upper wells were renewed after 24 h). After incubation, filters were removed from the chambers, fixed in 4% paraformaldehyde for 15 min (4°C), permeabilised for 10 min in methanol (−20°C) and stained with Giemsa (4%) for 15 min. The upper surface of the filters was scrapped with a cotton swab and cells having reached the lower surface of the filters were visually counted using a light microscope (Vanox AH3, Olympus, Hamburg, Germany) at 20-fold magnification. Each assay was performed in triplicate. Results were expressed as percentages (±s.d.) of the migration of control cells.

[2] = tested on: HT1080 fibrosarcoma cells; assay: Chemoinvasion assay, type IV collagen-coated Transwell inserts (Boyden chamber); type: cell-based, human; details: Homo sapiens, HT-1080, 48 h, type IV collagen-coated filters, read-out: inhibition of HT1080 cell invasion (chemoinvasion)
Method: Plates (24-well) (Falcon, Becton-Dickinson, USA) and 6.5 mm polycarbonate filters (8 μm pore size) of Transwell cell culture chamber inserts (Costar, Netherlands) were coated with 100 μl of type IV collagen purified from human placenta diluted at 200 μg ml^−1 in phosphate-buffered saline (PBS). Coats were left to air-dry overnight in a laminar flow hood under UV light. Uniformity of the coating was assessed by Coomassie blue staining. Before use, coated plates and inserts were washed twice with water and incubated for at least 1 h in serum-free DMEM at 37°C ([Maquoi et al, 1999]).
as §1, §2, §3

HMW- and LMW-uPA = assay: Plasminogen zymography of HT1080 conditioned medium; type: biochemical, human; details: 1–100 μM in HT1080 conditioned medium
Method: The culture medium of human fibrosarcoma HT1080 cells (DMEM) was removed and concentrated 20-fold in a Vivaspin 6 ml concentrator. It was incubated for 30 min at ambient temperature in nonreducing sample buffer and run under Laemmli conditions ([Laemmli, 1970]) by loading a volume of 25 μl onto 7.5% polyacrylamide gels containing 0.1% sodium dodecyl sulphate (SDS), 2 mg ml^−1 casein and 0.16 μM human plasminogen. Following electrophoresis, gels were incubated for 1 h in 2.5% (v v^−1) Triton X-100 for removal of SDS and then for 1 h at 37°C in 50 mM Tris-HCl, 0.1 M NaCl, pH 7.6. Plasminogen activator (PA) activity was visualised as clear bands of lysis upon staining with 0.1% Coomassie blue R250. Purified human high-molecular-weight two-chain urokinase plasminogen activator (HMW-uPA) and low-molecular-weight urokinase plasminogen activator (LMW-uPA) were run in each gel as positive controls. An analogous protocol was followed to detect enzymatic activities towards MMP-2 and MMP-9 except that the 7% SDS–PAGE contained 1 mg ml^−1 bovine gelatin. The gels were incubated at 37°C for about 18 h in 5 mM Tris, pH 7.6 containing 0.2 M NaCl, 5 mM CaCl2 and 0.02 (w v^−1) Brij35. Protein staining was performed during 1 h with a 0.25% solution of Coomassie brillant blue R250 in 50% methanol and 7% acetic acid and destaining in a solution of 20% methanol and […]. […]

CC(=O)OCc1ccc2oc(=O)c(C(=O)Oc3cccc(Cl)c3)cc2c1 [compound 4, 3-chlorophenyl 6-acetoxymethyl-2-oxo-2H-1-benzopyran-3-carboxylate]
inhibition at 0.1 µM ([1]; 0.1 μM): 20% | inhibition at 1 µM [1]: 50% | inhibition at 10 µM ([1]; 10 μM): 80% | inhibition at 1 µM [2]: 50% | inhibition at 10 µM [2]: 90% | effect on HMW- and LMW-uPA activities of conditioned culture medium (plasminogen zymography) (HMW- and LMW-uPA): did not abrogate

CC(=O)OCc1ccc2oc(=O)c(C(=O)Oc3cccc(Br)c3)cc2c1 [compound 7, 3-bromophenyl 6-acetoxy-methyl-2-oxo-2H-1-benzopyran-3-carboxylate]
inhibition at 1 µM [1]: ~30% | inhibition at 1 µM [2]: 80% | inhibition at 10 µM [2]: ~90% | effect on HMW- and LMW-uPA activities of conditioned culture medium (plasminogen zymography) (HMW- and LMW-uPA): did not abrogate
